Results: patent publication US20090069373A1, “Quinoline Acids” (Wyeth, priority 2007, published 2009)

Experiments:
[1] = biological target: T1, human LXRα (Homo sapiens, UniProt Q13133); experiment: Ligand-binding test procedure for human LXRα (3H T0901317 competition, flash plates); conditions: biotinylated hLXRα, tracer 3H T0901317
T1 construct: biotin (biotinylated; biotinylation tag not described); made in house; host or cells: E. coli
T1 sequence (Q13133 1-447): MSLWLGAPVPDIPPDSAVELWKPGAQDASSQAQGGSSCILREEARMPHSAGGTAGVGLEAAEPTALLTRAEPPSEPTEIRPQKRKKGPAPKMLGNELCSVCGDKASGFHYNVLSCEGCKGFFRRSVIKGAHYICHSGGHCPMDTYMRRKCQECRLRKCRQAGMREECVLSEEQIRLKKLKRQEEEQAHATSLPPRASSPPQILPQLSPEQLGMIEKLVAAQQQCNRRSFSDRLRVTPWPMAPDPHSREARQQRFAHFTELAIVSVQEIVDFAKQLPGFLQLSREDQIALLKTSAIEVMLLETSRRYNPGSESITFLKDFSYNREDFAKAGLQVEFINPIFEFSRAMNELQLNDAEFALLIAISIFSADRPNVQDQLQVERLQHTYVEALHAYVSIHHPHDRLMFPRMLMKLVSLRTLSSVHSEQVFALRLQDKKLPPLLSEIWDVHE
Method in brief: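 Competition binding of test ligands against 5 nM ³H tracer solution (pre-mix concentration) on biotinylated hLXRα from E. coli extract, captured on streptavidin flash plates (Bmax ~4000 cpm). Ligand dilution series made in DMSO. Incubated overnight at +4 °C; bound radioactivity counted after washing.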

[2] = biological target: T2, human LXRβ (Homo sapiens, UniProt P55055); experiment: Ligand-binding test procedure for human LXRβ (3H T0901317 competition, flash plates); conditions: for Binding ratio a/b: IC50 (μM) LXRα binding/IC50 (μM) LXRβ binding; for IC50: biotinylated hLXRβ, tracer 3H T0901317
T2 construct: biotin (biotinylated; biotinylation tag not described); made in house; host or cells: E. coli
T2 sequence (P55055 1-460): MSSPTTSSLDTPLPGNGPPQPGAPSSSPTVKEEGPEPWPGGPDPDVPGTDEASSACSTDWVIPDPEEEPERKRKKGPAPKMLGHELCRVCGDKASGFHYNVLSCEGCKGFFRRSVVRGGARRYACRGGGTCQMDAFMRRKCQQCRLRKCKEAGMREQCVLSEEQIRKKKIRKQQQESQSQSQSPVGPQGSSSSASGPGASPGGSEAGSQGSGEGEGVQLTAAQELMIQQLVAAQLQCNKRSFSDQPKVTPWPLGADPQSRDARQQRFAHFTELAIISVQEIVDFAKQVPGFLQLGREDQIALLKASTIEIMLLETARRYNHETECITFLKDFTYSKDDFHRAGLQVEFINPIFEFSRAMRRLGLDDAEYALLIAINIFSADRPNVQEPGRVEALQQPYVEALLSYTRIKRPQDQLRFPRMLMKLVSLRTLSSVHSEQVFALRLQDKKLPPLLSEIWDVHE

| Compound | IC50 [1] [nM] | Binding ratio a/b [2] | IC50 [2] [nM] |
| --- | --- | --- | --- |
| O=C(N[C@@H](Cc1c[nH]cn1)C(=O)O)c1cccc(COc2cccc(-c3c(Cc4ccccc4)cnc4c(C(F)(F)F)cccc34)c2)c1 [Example 72, N-[3-({3-[3-benzyl-8-(trifluoromethyl)quinolin-4-yl]phenoxy}methyl)benzoyl]histidine] | 1100 | 4 | 309 |
| O=C(O)c1cc2cccc(NCc3cccc(-c4c(Cc5ccccc5)cnc5c(C(F)(F)F)cccc45)c3)c2[nH]1 [Example 77, 7-({3-[3-benzyl-8-(trifluoromethyl)quinolin-4-yl]benzyl}amino)-1H-indole-2-carboxylic acid] | 1250 | 3 | 408 |
| O=C(O)c1cc2ccccc2cc1NCc1cccc(-c2c(Cc3ccccc3)cnc3c(C(F)(F)F)cccc23)c1 [Example 78, 3-({3-[3-benzyl-8-(trifluoromethyl)quinolin-4-yl]benzyl}amino)-2-naphthoic acid] | 1990 | 3 | 666 |
| Cn1cc(C(=O)O)c2cc(NCc3cccc(-c4c(Cc5ccccc5)cnc5c(C(F)(F)F)cccc45)c3)ccc21 [Example 79, 5-({3-[3-benzyl-8-(trifluoromethyl)quinolin-4-yl]benzyl}amino)-1-methyl-1H-indole-3-carboxylic acid] | 1820 | 3 | 629 |
| O=C(O)c1cc(NCc2cccc(-c3c(Cc4ccccc4)cnc4c(C(F)(F)F)cccc34)c2)ccc1Cl [Example 82, 5-({3-[3-benzyl-8-(trifluoromethyl)quinolin-4-yl]benzyl}amino)-2-chlorobenzoic acid] | 1450 | 3 | 523 |
| Cc1cc(CC(=O)O)cc(NCc2cccc(-c3c(C)cnc4c(C(F)(F)F)cccc34)c2)c1C [Example 88, [3,4-dimethyl-5-({3-[3-methyl-8-(trifluoromethyl)quinolin-4-yl]benzyl}amino)phenyl]acetic acid] | 31600 | 2 | 12700 |
| O=C(O)c1c(F)cccc1OCc1cccc(-c2c(Cc3ccccc3)cnc3c(C(F)(F)F)cccc23)c1 [Example 89, 2-({3-[3-benzyl-8-(trifluoromethyl)quinolin-4-yl]benzyl}oxy)-6-fluorobenzoic acid] | 3980 | 2 | 1600 |
| O=C(O)c1ccc(Cl)cc1NCc1cccc(-c2c(Cc3ccccc3)cnc3c(C(F)(F)F)cccc23)c1 [Example 91, 2-({3-[3-benzyl-8-(trifluoromethyl)quinolin-4-yl]benzyl}amino)-4-chlorobenzoic acid] | 1080 | 2 | 477 |
| O=C(O)c1ccc(F)c(OCc2cccc(-c3c(Cc4ccccc4)cnc4c(C(F)(F)F)cccc34)c2)c1 [Example 92, 3-({3-[3-benzyl-8-(trifluoromethyl)quinolin-4-yl]benzyl}oxy)-4-fluorobenzoic acid] | 1280 | 2 | 570 |
| Cc1cccc(NCc2cccc(-c3c(Cc4ccccc4)cnc4c(C(F)(F)F)cccc34)c2)c1C(=O)O [Example 93, 2-({3-[3-benzyl-8-(trifluoromethyl)quinolin-4-yl]benzyl}amino)-6-methylbenzoic acid] | 2000 | 2 | 906 |
| Cc1ccc(C(=O)O)cc1NCc1cccc(-c2c(Cc3ccccc3)cnc3c(C(F)(F)F)cccc23)c1 [Example 94, 3-({3-[3-benzyl-8-(trifluoromethyl)quinolin-4-yl]benzyl}amino)-4-methylbenzoic acid] | 3010 | 2 | 1370 |
| O=C(O)c1ccc2ccccc2c1OCc1cccc(-c2c(Cc3ccccc3)cnc3c(C(F)(F)F)cccc23)c1 [Example 95, 1-({3-[3-benzyl-8-(trifluoromethyl)quinolin-4-yl]benzyl}oxy)-2-naphthoic acid] | 2220 | 2 | 1030 |
| CC(C)C[C@H](NC(=O)c1cccc(COc2cccc(-c3c(Cc4ccccc4)cnc4c(C(F)(F)F)cccc34)c2)c1)C(=O)O [Example 96, N-[3-({3-[3-benzyl-8-(trifluoromethyl)quinolin-4-yl]phenoxy}methyl)benzoyl]leucine] | 1160 | 2 | 546 |

Stronger by IC50 [1], values ahead:

| IC50 [1] [nM] | Binding ratio a/b [2] | IC50 [2] [nM] | Compound |
| --- | --- | --- | --- |
| 997 | 3 | 374 | O=C(O)Cc1cccc2ccc(OCc3cccc(-c4c(Cc5ccccc5)cnc5c(C(F)(F)F)cccc45)c3)cc12 [Example 86, [7-({3-[3-benzyl-8-(trifluoromethyl)quinolin-4-yl]benzyl}oxy)-1-naphthyl]acetic acid] |
| 983 | 3 | 318 | CSCC[C@H](NC(=O)c1cccc(COc2cccc(-c3c(Cc4ccccc4)cnc4c(C(F)(F)F)cccc34)c2)c1)C(=O)O [Example 76, N-[3-({3-[3-benzyl-8-(trifluoromethyl)quinolin-4-yl]phenoxy}methyl)benzoyl]methionine] |
| 966 | 3 | 359 | O=C(O)c1ccc(OCc2cccc(-c3c(Cc4ccccc4)cnc4c(C(F)(F)F)cccc34)c2)c(Cl)c1 [Example 85, 4-({3-[3-benzyl-8-(trifluoromethyl)quinolin-4-yl]benzyl}oxy)-3-chlorobenzoic acid] |
| 872 | 2 | 358 | O=C(O)c1cccc(COc2cccc(-c3c(Cc4ccccc4)cnc4c(C(F)(F)F)cccc34)c2)c1 [Example 90, 3-({3-[3-benzyl-8-(trifluoromethyl)quinolin-4-yl]phenoxy}methyl)benzoic acid] |
| 864 | 3 | 319 | O=C(O)c1ccc(OCc2cccc(-c3c(Cc4ccccc4)cnc4c(C(F)(F)F)cccc34)c2)c(F)c1 [Example 84, 4-({3-[3-benzyl-8-(trifluoromethyl)quinolin-4-yl]benzyl}oxy)-3-fluorobenzoic acid] |
| 802 | 3 | 292 | O=C(O)c1c[nH]c2c(NCc3cccc(-c4c(Cc5ccccc5)cnc5c(C(F)(F)F)cccc45)c3)cccc12 [Example 83, 7-({3-[3-benzyl-8-(trifluoromethyl)quinolin-4-yl]benzyl}amino)-1H-indole-3-carboxylic acid] |
| 654 | 3 | 236 | CC(C)C[C@H](NC(=O)c1ccc(COc2cccc(-c3c(Cc4ccccc4)cnc4c(C(F)(F)F)cccc34)c2)cc1)C(=O)O [Example 81, N-[4-({3-[3-benzyl-8-(trifluoromethyl)quinolin-4-yl]phenoxy}methyl)benzoyl]leucine] |
| 613 | 3 | 183 | Cc1cnc2c(C(F)(F)F)cccc2c1-c1cccc(CNc2ccc(C(=O)O)c(Cl)c2)c1 [Example 73, 2-chloro-4-({3-[3-methyl-8-(trifluoromethyl)quinolin-4-yl]benzyl}amino)benzoic acid] |
| 493 | 2 | 237 | O=C(O)c1ccccc1NCc1cccc(-c2c(Cc3ccccc3)cnc3c(C(F)(F)F)cccc23)c1 [Example 97, 2-({3-[3-benzyl-8-(trifluoromethyl)quinolin-4-yl]benzyl}amino)benzoic acid] |
| 374 | 3 | 129 | Cc1cnc2c(C(F)(F)F)cccc2c1-c1cccc(CNc2cccc3c(C(=O)O)cccc23)c1 [Example 80, 5-({3-[3-methyl-8-(trifluoromethyl)quinolin-4-yl]benzyl}amino)-1-naphthoic acid] |
| 80 | 3 | 25 | Cc1cc(NCc2cccc(-c3c(Cc4ccccc4)cnc4c(C(F)(F)F)cccc34)c2)ccc1C(=O)O [Example 75, 4-({3-[3-benzyl-8-(trifluoromethyl)quinolin-4-yl]benzyl}amino)-2-methylbenzoic acid] |
| 72 | 3 | 28 | O=C(O)c1ccc(NCc2cccc(-c3c(Cc4ccccc4)cnc4c(C(F)(F)F)cccc34)c2)cc1Cl [Example 87, 4-({3-[3-benzyl-8-(trifluoromethyl)quinolin-4-yl]benzyl}amino)-2-chlorobenzoic acid] |
